Test results published in publication PMC8493129, “Design and Synthesis of New Quinoxaline Derivatives as Potential Histone Deacetylase Inhibitors Targeting Hepatocellular Carcinoma: In Silico, In Vitro, and SAR Studies” (Frontiers in Chemistry, 2021).

Columns and labels:
[1] = system: HepG-2 liver cancer cell line; assay: Anti-proliferative activity (MTT / SRB assay), HepG-2; assay type: cell-based, human; conditions: for IC50: Homo sapiens, HepG2, mean of three separate experiments
Experimental: (§1) The new quinoxaline derivatives of the five series: 6, 7, 8, 9, and 10 were evaluated for their potential anti-proliferative activity against two liver cancer cell lines (HepG-2 and HuH-7) obtained from the American Type Culture Collection.

[2] = system: HuH-7 liver cancer cell line; assay: Anti-proliferative activity (MTT / SRB assay), HuH-7; assay type: cell-based, human; conditions: for IC50: Homo sapiens, mean of three separate experiments
Experimental: as §1

[3] = system: HepG-2 and HuH-7 liver cancer cell lines; assay: Anti-proliferative activity, statements covering both cell lines; assay type: cell-based, human; conditions: class by IC50 on HepG-2 and HuH-7
Experimental: as §1

[4] = system: Bax; assay: Apoptotic marker level (Bax) in HepG-2 cells; assay type: cell-based, human; conditions: control 24.37 pg/ml
Experimental: (§2) The method was performed in detail as previously explained ([Eliaa et al., 2020]).

[5] = system: Bcl-2; assay: Anti-apoptotic marker level (Bcl-2) in HepG-2 cells; assay type: cell-based, human; conditions: control 5.048 pg/ml
Experimental: as §2

[6] = biological target: HDAC1 (Homo sapiens, UniProt Q13547); assay: Histone deacetylase inhibition, homogeneous fluorescence release assay
HDAC1, sequence (Q13547 whole entry): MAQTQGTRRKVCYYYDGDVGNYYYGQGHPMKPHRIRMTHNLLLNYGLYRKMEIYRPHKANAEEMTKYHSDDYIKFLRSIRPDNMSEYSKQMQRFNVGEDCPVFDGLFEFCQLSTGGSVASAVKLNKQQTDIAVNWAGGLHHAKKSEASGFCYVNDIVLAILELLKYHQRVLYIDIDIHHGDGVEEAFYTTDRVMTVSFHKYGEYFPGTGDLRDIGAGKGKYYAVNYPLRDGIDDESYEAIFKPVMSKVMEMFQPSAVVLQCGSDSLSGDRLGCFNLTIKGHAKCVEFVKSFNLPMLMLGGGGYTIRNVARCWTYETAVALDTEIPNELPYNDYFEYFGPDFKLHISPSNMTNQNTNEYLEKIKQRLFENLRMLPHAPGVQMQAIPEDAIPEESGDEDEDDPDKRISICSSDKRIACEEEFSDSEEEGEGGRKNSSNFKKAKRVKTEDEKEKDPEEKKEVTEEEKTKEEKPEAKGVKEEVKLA

[7] = biological target: HDAC4 (Homo sapiens, UniProt P56524); assay: as above
HDAC4, sequence (P56524 whole entry): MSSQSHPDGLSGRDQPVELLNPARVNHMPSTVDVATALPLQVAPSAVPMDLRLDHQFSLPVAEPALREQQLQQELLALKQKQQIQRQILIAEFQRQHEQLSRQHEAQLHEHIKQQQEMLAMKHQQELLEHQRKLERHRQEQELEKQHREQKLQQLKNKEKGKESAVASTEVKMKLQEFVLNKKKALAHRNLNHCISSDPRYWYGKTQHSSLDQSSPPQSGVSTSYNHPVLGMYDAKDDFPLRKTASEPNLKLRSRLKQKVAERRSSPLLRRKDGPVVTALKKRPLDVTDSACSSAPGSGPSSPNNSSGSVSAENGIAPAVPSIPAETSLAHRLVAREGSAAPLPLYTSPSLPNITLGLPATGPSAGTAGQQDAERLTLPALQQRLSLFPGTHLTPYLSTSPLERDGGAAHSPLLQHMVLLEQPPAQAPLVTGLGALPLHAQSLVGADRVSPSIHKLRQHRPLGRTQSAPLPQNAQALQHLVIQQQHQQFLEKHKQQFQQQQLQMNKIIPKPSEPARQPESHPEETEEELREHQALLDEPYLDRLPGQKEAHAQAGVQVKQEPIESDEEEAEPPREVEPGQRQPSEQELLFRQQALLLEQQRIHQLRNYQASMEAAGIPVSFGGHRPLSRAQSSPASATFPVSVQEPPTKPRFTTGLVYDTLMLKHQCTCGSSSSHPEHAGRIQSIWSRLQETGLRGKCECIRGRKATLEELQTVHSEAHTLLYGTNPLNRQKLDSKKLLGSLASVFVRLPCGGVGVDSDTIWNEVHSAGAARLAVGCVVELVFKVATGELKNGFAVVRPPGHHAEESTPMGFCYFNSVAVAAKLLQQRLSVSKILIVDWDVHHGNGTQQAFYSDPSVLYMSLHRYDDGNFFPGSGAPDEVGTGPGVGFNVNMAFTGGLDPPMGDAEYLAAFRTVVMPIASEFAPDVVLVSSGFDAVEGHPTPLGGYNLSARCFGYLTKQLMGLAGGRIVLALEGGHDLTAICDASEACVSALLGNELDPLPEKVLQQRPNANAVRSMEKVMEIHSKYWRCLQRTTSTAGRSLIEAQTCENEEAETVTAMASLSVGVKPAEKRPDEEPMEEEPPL

[8] = biological target: T1, HDAC6 (Homo sapiens, UniProt Q9UBN7); assay: as above
T1 sequence (Q9UBN7 1-1215): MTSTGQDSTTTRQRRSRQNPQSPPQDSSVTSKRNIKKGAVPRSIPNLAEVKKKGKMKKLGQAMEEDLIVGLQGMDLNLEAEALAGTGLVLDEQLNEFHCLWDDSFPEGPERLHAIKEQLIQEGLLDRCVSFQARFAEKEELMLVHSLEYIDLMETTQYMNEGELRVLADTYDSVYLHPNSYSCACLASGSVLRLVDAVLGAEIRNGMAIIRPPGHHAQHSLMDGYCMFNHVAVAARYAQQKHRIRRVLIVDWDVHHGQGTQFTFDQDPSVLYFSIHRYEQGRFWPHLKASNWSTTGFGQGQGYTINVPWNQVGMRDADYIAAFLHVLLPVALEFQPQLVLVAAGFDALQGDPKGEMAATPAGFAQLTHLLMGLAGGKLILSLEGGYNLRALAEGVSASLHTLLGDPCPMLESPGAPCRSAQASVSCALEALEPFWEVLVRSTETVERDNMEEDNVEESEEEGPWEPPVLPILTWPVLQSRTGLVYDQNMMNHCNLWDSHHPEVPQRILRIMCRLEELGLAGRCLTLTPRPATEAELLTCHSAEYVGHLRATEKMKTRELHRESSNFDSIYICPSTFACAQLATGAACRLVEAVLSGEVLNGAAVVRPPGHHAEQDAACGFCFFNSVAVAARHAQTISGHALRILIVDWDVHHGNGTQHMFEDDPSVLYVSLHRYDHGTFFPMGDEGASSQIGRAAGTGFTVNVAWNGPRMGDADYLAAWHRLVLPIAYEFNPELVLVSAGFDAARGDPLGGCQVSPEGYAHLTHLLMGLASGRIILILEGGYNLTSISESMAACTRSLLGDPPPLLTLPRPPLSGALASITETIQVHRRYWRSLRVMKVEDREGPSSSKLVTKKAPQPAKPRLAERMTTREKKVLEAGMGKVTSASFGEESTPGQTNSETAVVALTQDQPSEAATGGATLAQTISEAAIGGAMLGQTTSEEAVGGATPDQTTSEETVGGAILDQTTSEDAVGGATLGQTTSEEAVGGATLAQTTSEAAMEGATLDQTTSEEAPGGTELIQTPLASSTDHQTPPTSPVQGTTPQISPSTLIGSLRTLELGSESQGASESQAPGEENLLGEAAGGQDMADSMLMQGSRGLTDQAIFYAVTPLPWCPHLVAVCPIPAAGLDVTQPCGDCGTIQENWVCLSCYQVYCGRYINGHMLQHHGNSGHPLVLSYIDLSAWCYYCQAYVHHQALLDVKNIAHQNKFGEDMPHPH

IC50 ([1]; HepG-2) | IC50 [2] | IC50 [6] | IC50 [7] | IC50 [8] | SMILES | Bax [4] | Bcl-2 [5] | other results
28.6 µM | 27.3 µM |  |  |  | COc1ccccc1C=NNc1nc2ccccc2nc1OC [Compound 10 d, 2-Methoxy-3-(2-(2-methoxybenzylidene)hydrazinyl)quinoxaline] |  |  | 
7.71 µM | 6.52 µM | 4.18 µM | 3.81 µM | 6.29 µM | Oc1ccccc1C=NNc1nc2ccccc2nc1Cl [Compound 6 k, 2-((2-(3-Chloroquinoxalin-2-yl)hydrazono)methyl)phenol] | 164.3 pg/mL | 2.914 pg/mL | 
6.16 µM | 9.47 µM | 3.52 µM | 3.25 µM | 4.28 µM | Clc1ccc(C=NNc2nc3ccccc3nc2Cl)c(Cl)c1 [Compound 6 d, 2-Chloro-3-(2-(2,4-dichlorobenzylidene)hydrazinyl)quinoxaline] | 179.2 pg/mL | 2.711 pg/mL | 
32.1 µM | 35.2 µM |  |  |  | COc1nc2ccccc2nc1NN=Cc1ccc(Cl)cc1Cl [Compound 10 b, 2-(2-(2,4-Dichlorobenzylidene)hydrazinyl)-3-methoxyquinoxaline] |  |  | 
55.7 µM | 50.6 µM |  |  |  | COc1ccc(C=NNc2nc3ccccc3nc2OC)cc1OC [Compound 10 e, 2-(2-(3,4-Dimethoxybenzylidene)hydrazinyl)-3-methoxyquinoxaline] |  |  | 
13.5 µM | 17.5 µM |  |  |  | Clc1cccc(Cl)c1C=NNc1nc2ccccc2nc1Cl [Compound 6 e, 2-Chloro-3-(2-(2,6-dichlorobenzylidene)hydrazinyl)quinoxaline] |  |  | 
60.5 µM | 65.3 µM |  |  |  | COc1nc2ccccc2nc1NN=Cc1c(Cl)cccc1Cl [Compound 10 c, 2-(2-(2,6-Dichlorobenzylidene)hydrazinyl)-3-methoxyquinoxaline] |  |  | 
15.9 µM | 25.8 µM |  |  |  | O=[N+]([O-])c1ccc(C=NNc2nc3ccccc3nc2Cl)cc1 [Compound 6 j, 2-Chloro-3-(2-(4-nitrobenzylidene)hydrazinyl)quinoxaline] |  |  | 
2.16 µM | 3.05 µM | 2.17 µM | 1.64 µM | 3.81 µM | COc1ccc(C=NNc2nc3ccccc3nc2Cl)cc1OC [Compound 6 g, 2-Chloro-3-(2-(3,4-dimethoxybenzylidene)hydrazinyl)quinoxaline] | 247.5 pg/mL | 1.687 pg/mL | 
15.8 µM | 18.7 µM |  |  |  | Clc1ccccc1C=NNc1nc2ccccc2nc1Cl [Compound 6 b, 2-Chloro-3-(2-(2-chlorobenzylidene)hydrazinyl)quinoxaline] |  |  | 
63.9 µM | 65.7 µM |  |  |  | O=[N+]([O-])c1cccc(C=NNc2nc3ccccc3nc2Cl)c1 [Compound 6 i, 2-Chloro-3-(2-(3-nitrobenzylidene)hydrazinyl)quinoxaline] |  |  | 
14.3 µM | 18.2 µM |  |  |  | Clc1nc2ccccc2nc1NN=Cc1ccccc1 [Compound 6 a, 2-(2-Benzylidenehydrazinyl)-3-chloroquinoxaline] |  |  | 
53.9 µM | 57.8 µM |  |  |  | COc1nc2ccccc2nc1NN=Cc1ccc(Cl)cc1 [Compound 10 a, 2-(2-(4-Chlorobenzylidene)hydrazinyl)-3-methoxyquinoxaline] |  |  | 
6.63 µM | 8.52 µM | 3.29 µM | 3.44 µM | 5.32 µM | COc1ccccc1C=NNc1nc2ccccc2nc1Cl [Compound 6 f, 2-Chloro-3-(2-(2-methoxybenzylidene)hydrazinyl)quinoxaline] | 185.7 pg/mL | 2.705 pg/mL | 
5.39 µM | 9.27 µM | 3.29 µM | 2.79 µM | 4.09 µM | CN(C)c1ccc(C=NNc2nc3ccccc3nc2Cl)cc1 [Compound 6 l, 4-((2-(3-Chloroquinoxalin-2-yl)hydrazono)methyl)-N,N-dimethylaniline] | 219.7 pg/mL | 2.519 pg/mL | 
11.8 µM | 14.7 µM |  |  |  | COc1cc(C=NNc2nc3ccccc3nc2Cl)cc(OC)c1OC [Compound 6 h, 2-Chloro-3-(2-(3,4,5-trimethoxybenzylidene)hydrazinyl)quinoxaline] |  |  | 

More lines, now with the values behind:

SMILES | IC50 ([1]; HepG-2) | IC50 [2] | IC50 [6] | IC50 [7] | IC50 [8] | Bax [4] | Bcl-2 [5] | other results
COc1nc2ccccc2nc1NN=Cc1ccc(N(C)C)cc1 [Compound 10 i, 4-((2-(3-Methoxyquinoxalin-2-yl)hydrazono)methyl)-N,N-dimethylaniline] | 23 µM | 22.7 µM |  |  |  |  |  | 
COc1nc2ccccc2nc1NN=Cc1c(O)ccc2ccccc12 [Compound 11, 1-((2-(3-Methoxyquinoxalin-2-yl)hydrazono)methyl)naphthalen-2-ol] | 18.5 µM | 20.3 µM |  |  |  |  |  | cytotoxic (anti-proliferative) activity class [3]: strong (11–20 (strong))
COc1nc2ccccc2nc1NN=Cc1ccc([N+](=O)[O-])cc1 [Compound 10 g, 2-Methoxy-3-(2-(4-nitrobenzylidene)hydrazinyl)quinoxaline] | 13 µM | 19.1 µM |  |  |  |  |  | 
COc1cccc2c1C(=O)c1c(O)c3c(c(O)c1C2=O)C[C@@](O)(C(=O)CO)C[C@@H]3O[C@H]1C[C@H](N)[C@H](O)[C@H](C)O1 [Doxorubicin, reference compound] | 8.25 µM | 9.2 ± 0.65 µM |  |  |  |  |  | 
CC(=NNc1nc2ccccc2nc1Cl)c1ccccc1 [Compound 7 a, 2-Chloro-3-(2-(1-phenylethylidene)hydrazinyl)quinoxaline] | 28.5 µM | 37.1 µM |  |  |  |  |  | 
COc1nc2ccccc2nc1N/N=C1/C(=O)Nc2ccccc21 [Compound 12] | 1.99 µM | 3.08 µM | 2.01 µM | 1.72 µM | 3.62 µM | 257.9 pg/mL | 1.571 pg/mL | fold increase in activity versus corresponding member 9, HepG-2 ([1]; ratio of IC50 values, HepG-2): 5.81 fold; fold increase in activity versus corresponding member 9, HuH-7 ([2]; ratio of IC50 values): 5.33 fold; cytotoxic (anti-proliferative) activity class [3]: very strong (1–10 (very strong))
O=C1Nc2ccccc2/C1=N\Nc1nc2ccccc2nc1Cl [Compound 9, 2-(2-(3-Chloroquinoxalin-2-yl)hydrazono)indolein-3-one] | 11.6 µM | 16.4 µM |  |  |  |  |  | cytotoxic (anti-proliferative) activity class [3]: strong (11–20 (strong))
Oc1ccc2ccccc2c1C=NNc1nc2ccccc2nc1Cl [Compound 8, 1-((2-(3-Chloroquinoxalin-2-yl)hydrazono)methyl)naphthalen-2-ol] | 3.88 µM | 6.14 µM | 1.72 µM | 2.09 µM | 4.37 µM | 233.6 pg/mL | 1.839 pg/mL | fold increase in activity versus corresponding member 11, HepG-2 ([1]; ratio of IC50 values, HepG-2): 4.76 fold; fold more active than compound 9 ([1]; ratio of IC50 values, stated for the two cell lines, figure fits HepG-2): 2.98 fold; fold increase in activity versus corresponding member 11, HuH-7 ([2]; ratio of IC50 values): 3.30 fold; cytotoxic (anti-proliferative) activity class [3]: very strong (1–10 (very strong))
COc1nc2ccccc2nc1NN=Cc1ccccc1O [Compound 10 h, 2-((2-(3-Methoxyquinoxalin-2-yl)hydrazono)methyl)phenol] | 5.56 µM | 6.72 µM | 3.54 µM | 3.15 µM | 7.21 µM | 205.4 pg/mL | 2.673 pg/mL | 
COc1cc(C=NNc2nc3ccccc3nc2OC)cc(OC)c1OC [Compound 10 f, 2-Methoxy-3-(2-(3,4,5-trimethoxybenzylidene)hydrazinyl)quinoxaline] | 56.9 µM | 48.8 µM |  |  |  |  |  | 
